Reference: US20240254138A1, “TRICYCLIC PYRIMIDINES AS CYCLIN-DEPENDENT KINASE 7 (CDK7) INHIBITORS” (JANSSEN PHARMACEUTICA NV, priority 2021, published 2024)
Like-named read-outs stand apart in the source and are kept apart here.

Key:
[1] = system: RNA Polymerase II Serine 5 phosphorylation in A549 cells overexpressing CDK7-mutant (C312S); assay: Imaging-based cellular RNA PolII Ser5 phosphorylation assay in A549 cells overexpressing CDK7-mutant (C312S); format: cell-based, human; conditions: RNA PolII Ser5 phosphorylation, averaged over all measurements; for IC50: Homo sapiens, A549, A549 cells overexpressing CDK7-mutant (C312S), read-out: CDK7_A549 mutant hCDK7(pIC50) (converted)
Procedure, shortened: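 A549 cells overexpressing CDK7 C312S (with endogenous wild-type CDK7) were treated with compound for 3 h at 37 °C in 1% FBS medium. Phospho-Rpb1 CTD Ser5 was immunostained after fixation and imaged. IC50 came from curve fit of % control, normalised to DMSO and 10 μM reference-compound controls.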

[2] = system: RNA Polymerase II Serine 5 phosphorylation (Rpb1 CTD, downstream substrate of CDK7) in A549 cells; assay: Imaging-based cellular RNA PolII Ser5 phosphorylation assay in A549 cells; format: cell-based, human; conditions: wild-type CDK7, RNA PolII Ser5 phosphorylation, averaged over all measurements; for IC50: Homo sapiens, A549, A549 cells, read-out: CDK7_A549 Wild-type CDK7 (pIC50) (converted)
Procedure, shortened: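 A549 cells, seeded 1000/well in DMEM with 1% FBS and cultured 20 h, were treated with compound for 3 h at 37 °C. Ser5-phospho-Rpb1 CTD detected by immunofluorescence imaging after fixation and methanol permeabilization; IC50 from curve fit normalized to DMSO and 10 μM reference-compound controls.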

[3] = target: CDK7/cyclinH/MAT1 trimeric complex (Homo sapiens, UniProt P50613); assay: In vitro CDK7 assay, potency of irreversible covalent inhibitors (kinact/KI), coupled PK/LDH ADP readout at 340 nm
[4] = CDK7 (20 nM enz.) (KI, μM), 20 nM enzyme
[5] = read-out: CDK7 (20 nM enz.) (kinact, s^−1), 20 nM enzyme
[6] = read-out: CDK7 (20 nM enz.) (kinact/KI, M^−1*s^−1), 20 nM enzyme
[7] = read-out: CDK7 (kinact/KI, M^−1*s^−1), potency of irreversible covalent inhibitors, 1 mM ATP, room temperature, averaged values over all measurements
[8] = CDK7 (KI(μM)), […], 1 mM ATP, room temperature, averaged values over all measurements
[9] = read-out: CDK7 (kinact, s^−1), kinact = maximal rate of inactivation, 1 mM ATP, room temperature, averaged values over all measurements
[10] = read-out: CDK7 (20 nM enz.) (kobs/[I], M^−1*s^−1), 20 nM enzyme

Chain of CDK7/cyclinH/MAT1 trimeric complex (P50613 whole entry): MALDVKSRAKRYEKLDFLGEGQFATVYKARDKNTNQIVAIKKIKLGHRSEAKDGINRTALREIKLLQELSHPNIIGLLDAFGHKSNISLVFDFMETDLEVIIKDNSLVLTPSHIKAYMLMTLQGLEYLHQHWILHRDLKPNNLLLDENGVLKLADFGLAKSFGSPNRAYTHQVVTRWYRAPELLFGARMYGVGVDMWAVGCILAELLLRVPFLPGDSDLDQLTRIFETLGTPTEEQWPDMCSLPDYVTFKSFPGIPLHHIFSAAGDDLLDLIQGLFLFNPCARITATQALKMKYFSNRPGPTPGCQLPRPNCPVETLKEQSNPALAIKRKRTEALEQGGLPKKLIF
Chain of CDK7/cyclinH/MAT1 trimeric complex (P51946 whole entry partner): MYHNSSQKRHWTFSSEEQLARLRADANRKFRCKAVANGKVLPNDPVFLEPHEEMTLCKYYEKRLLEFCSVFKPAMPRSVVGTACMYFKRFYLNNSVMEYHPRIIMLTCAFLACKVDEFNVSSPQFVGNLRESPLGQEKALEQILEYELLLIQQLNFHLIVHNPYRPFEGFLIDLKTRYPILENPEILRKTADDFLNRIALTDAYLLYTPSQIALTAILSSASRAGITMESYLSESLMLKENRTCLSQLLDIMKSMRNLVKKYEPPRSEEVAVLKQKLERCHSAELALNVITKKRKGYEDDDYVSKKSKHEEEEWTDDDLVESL
Chain of CDK7/cyclinH/MAT1 trimeric complex (P51948 whole entry partner): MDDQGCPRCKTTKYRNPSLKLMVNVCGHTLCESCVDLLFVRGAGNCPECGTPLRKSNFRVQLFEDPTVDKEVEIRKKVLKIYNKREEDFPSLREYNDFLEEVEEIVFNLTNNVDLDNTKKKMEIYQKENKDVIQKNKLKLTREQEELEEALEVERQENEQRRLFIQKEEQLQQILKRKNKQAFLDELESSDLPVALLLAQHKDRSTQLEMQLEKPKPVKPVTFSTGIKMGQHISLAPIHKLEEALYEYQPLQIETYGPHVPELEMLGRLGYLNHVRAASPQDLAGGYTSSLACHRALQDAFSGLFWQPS

SMILES: C=CC(=O)N1CC[C@H](N2CCC(c3cc4c(c(C)n3)OCc3c(N5CCOCC5)ccnc3N4)CC2)C1 (single isomer, unassigned) [Compound 183]
- IC50 [1]: > 10000 nM
- IC50 [2]: 56.2 nM
- Ki [3, 4]: 0.0731 µM
- kinact [3, 5]: 5.78e-05 s⁻¹
- kinact/KI [3, 6]: 791 M⁻¹ s⁻¹

SMILES: C=CC(=O)N1CCC(N2CC(c3ccc4c(c3)Nc3nccc(C5CCOCC5)c3CO4)C2)CC1 [Compound 96]
- IC50 [1]: > 10000 nM
- IC50 [2]: 123 nM
- CDK7 (20 nM enz.) (kinact, s^−1) ([3]; 20 nM enzyme): 4.701e-05 s⁻¹
- CDK7 (20 nM enz.) (kinact/KI, M^−1*s^−1) ([3]; 20 nM enzyme): 255.867 M⁻¹ s⁻¹
- Ki [3, 4]: 0.184 µM

SMILES: CC#CC(=O)N1CCC(N2CC(c3cc4c(c(C5CC5)n3)O[C@H](C)c3c(N5CCOCC5)ccnc3N4)C2)CC1 (single isomer, unassigned) [Compound 376]
- IC50 [1]: 5010 nM
- IC50 [2]: 35.5 nM
- Ki [3, 4]: 0.0467 µM
- kinact [3, 5]: 9.41e-05 s⁻¹
- kinact/KI [3, 6]: 2020 M⁻¹ s⁻¹

SMILES: C=CC(=O)N1CC(N2CCCN(C)[C@@H](c3cc(C)c4c(c3)Nc3nccc(C5CCOCC5)c3CO4)C2)C1 (single isomer, unassigned) [Compound 259]
- IC50 [1]: > 10000 nM
- IC50 [2]: > 10000 nM
- Ki [3, 4]: 0.675 µM
- kinact [3, 5]: 3.66e-05 s⁻¹
- kinact/KI [3, 6]: 54.2 M⁻¹ s⁻¹

SMILES: C=CC(=O)N1CC[C@H]2CN(c3ccc4c(c3)Nc3nccc(N5CCOCC5)c3CO4)CC[C@H]21 (relative stereo) [Compound 27]
- IC50 [1]: > 10000 nM
- IC50 [2]: 3720 nM
- kinact/KI [3, 7]: 28.7 M⁻¹ s⁻¹

SMILES: C=CC(=O)N1CC(c2cc(-c3ccc4c(c3)Nc3nccc(N5CCOCC5)c3CO4)ccn2)C1 [Compound 58]
- IC50 [1]: > 10000 nM
- IC50 [2]: 490 nM
- Ki [3, 8]: 0.112 µM
- kinact [3, 9]: 5.76e-05 s⁻¹
- kinact/KI [3, 7]: 516 M⁻¹ s⁻¹

SMILES: C=CC(=O)N1CC(N2CCC(c3ccc4c(c3)Nc3nccc(N5CCOCC5)c3CO4)CC2)C1 [Compound 4]
- CDK7_A549 mutant hCDK7(pIC50) ([1]; A549 cells overexpressing CDK7-mutant (C312S)): <5
- CDK7_A549 Wild-type CDK7 (pIC50) ([2]; A549 cells): 6.84
- Ki [3, 8]: 0.0617 µM
- CDK7 (kinact/KI, M^−1*s^−1) ([3]; potency of irreversible covalent inhibitors, 1 mM ATP, room temperature, averaged values over all measurements): 3147.06 M⁻¹ s⁻¹
- kinact [3, 9]: 0.000303 s⁻¹

SMILES: C#Cc1cc2c(cc1C1CCN(C3CN(C(=O)C=C)C3)CC1)Nc1nccc(N3CCOCC3)c1C(C)O2 (stereo not drawn) [Compound 161]
- IC50 [1]: > 10000 nM
- IC50 [2]: 123 nM
- Ki [3, 4]: 0.0363 µM
- kinact [3, 5]: 3.09e-05 s⁻¹
- kinact/KI [3, 6]: 851 M⁻¹ s⁻¹

SMILES: C=CC(=O)N1CC(N2CCC(c3cc4c(c(C5CC5)c3)OCc3c(C5CCOCC5)ccnc3N4)CC2)C1 [Compound 87]
- IC50 [1]: > 10000 nM
- IC50 [2]: 81.3 nM
- kinact/KI [3, 10]: 1420 M⁻¹ s⁻¹

SMILES: CC#CC(=O)N1CCC(N2CC(c3cc(C#N)c4c(c3)Nc3nccc(N5CCOCC5)c3[C@@H](C)O4)C2)C1 (mixture of isomers) [Compound 493]
- IC50 [1]: 5890 nM
- IC50 [2]: 120 nM
- kinact/KI [3, 6]: 397 M⁻¹ s⁻¹

SMILES: CC#CC(=O)N1CCC(N2CC(c3cc4c(c(C(F)(F)F)n3)O[C@H](C)c3c(N5CCOCC5)ccnc3N4)C2)CC1 (single isomer, unassigned) [Compound 505]
- IC50 [1]: 2400 nM
- IC50 [2]: 38 nM
- kinact/KI [3, 6]: 246 M⁻¹ s⁻¹

SMILES: C=CC(=O)N1CC(N2CC[C@@H](c3cc4c(c(C)n3)OCc3c(N5CCOCC5)ccnc3N4)N(C)CC2)C1 (single isomer, unassigned) [Compound 454]
- IC50 [1]: > 10000 nM
- IC50 [2]: 257 nM
- Ki [3, 4]: 0.245 µM
- kinact [3, 5]: 5.68e-05 s⁻¹
- kinact/KI [3, 6]: 232 M⁻¹ s⁻¹

SMILES: CC#CC(=O)N1CCC(N2CC(c3cc4c(c(C#N)n3)OCc3c(N5CCOCC5)ccnc3N4)C2)CC1 [Compound 385]
- IC50 [1]: 4270 nM
- IC50 [2]: 158 nM
- Ki [3, 4]: 0.0211 µM
- kinact [3, 5]: 1.2e-05 s⁻¹
- kinact/KI [3, 6]: 570 M⁻¹ s⁻¹

SMILES: C=CC(=O)N1CC[C@H](N2CC(c3cc4c(c(C(F)(F)F)n3)OCc3c(N5CCOCC5)ccnc3N4)C2)C1 (single isomer, unassigned) [Compound 234]
- IC50 [1]: 8510 nM
- IC50 [2]: 95.5 nM
- CDK7 (20 nM enz.) (kobs/[I], M^−1*s^−1) ([3]; 20 nM enzyme): 610.385 M⁻¹ s⁻¹

SMILES: C=CC(=O)N1CC(N2CCC(c3cc(Br)c4c(c3)Nc3nccc(C5CCOCC5)c3CO4)CC2)C1 [Compound 82]
- IC50 [1]: 7940 nM
- IC50 [2]: 46.8 nM
- kinact/KI [3, 10]: 1570 M⁻¹ s⁻¹

SMILES: C=CC(=O)N1CC(N2CCC(c3cc(F)c4c(c3)Nc3nccc(-c5cnn(C)c5)c3CO4)CC2)C1 [Compound 126]
- IC50 [1]: > 10000 nM
- IC50 [2]: 47.9 nM
- CDK7 (20 nM enz.) (kobs/[I], M^−1*s^−1) ([3]; 20 nM enzyme): 875.576 M⁻¹ s⁻¹
